# Test system: patients with MDD
# Assay: Double-masked, placebo-controlled clinical study of tasimelteon in patients with MDD (NCT01428661), Hamilton Depression Scale
# Assay type: in vivo, human
# Procedure: A large clinical study was conducted to evaluate the effects of tasimelteon on depressive symptoms in patients with MDD. Details of the study design are set out in study number NCT01428661, available at clinicaltrials.gov. Aspects of the study relevant to the claimed invention are described below.
# A total of 507 patients with MDD were enrolled in a double-masked, placebo-controlled study randomized on either tasimelteon 20 mg (n=254) or placebo (n=253). Patients were assessed at baseline and weekly for eight weeks on a number of depression scales, including the Hamilton Depression Scale (HAMD).
compound,measurement,setting,value
"CCC(=O)NC[C@@H]1C[C@H]1c1cccc2c1CCO2 (relative stereo) [Tasimelteon, trans-N-[[2-(2,3-dihydrobenzofuran-4-yl)cycloprop-1yl]methyl] propanamide]",improvement on the HAMD scale,"African-American MDD patients, at eight weeks, tasimelteon 20 mg (n=78), p=0.018 vs placebo",9.9 points
same,"responder analysis (improvement in the HAMD scale of 50% or greater from baseline), patients showing improvement","African-American MDD patients, at eight weeks, tasimelteon 20 mg, p=0.0019 vs placebo",59%
same,improvement from baseline on the HAMD scale,"all randomized MDD patients, tasimelteon 20 mg (n=254), p=0.57 vs placebo",8.1 points

# Reference: patent US20220280471A1, “Treatment of Affective Disorders” (Vanda Pharmaceuticals Inc., priority 2017, published 2022)
